Measurements taken from patent publication US9878054B2, “Polypeptide and lipophilic moiety conjugate compositions, formulations, and uses related thereto” (Tufts Medical Center, Inc., priority 2012, dated 2018).

Key:
[1] = system: human platelets (thrombin); test: Thrombin-induced aggregation of human platelets; format: cell-based; details: 3 μM compound
Description: A, Depiction of the mechanism of action of the cell-penetrating PZ-128 pepducin compound targeting the third intracellular loop (red) of PAR1. B, The NMR structure of PZ-128 was determined by simulated annealing methods using 210 distance restraints and included restraints to the proximal 3 hydrocarbons of the lipid. […] D, PZ-128 inhibits PAR1-dependent platelet aggregation. Gel filtered human platelets were treated with various concentrations of PZ-128 and then challenged with the PAR1 agonist SFLLRN (2.5 μM), 20 μM ADP, 200 μM AYPGKF or 1 mg/ml Ristocetin. E, Human platelets were treated with 3 μM PZ-128, 3 μM RWJ-56110, or 5% dextrose vehicle before the addition of various concentrations of thrombin (n=3-5).
PZ-128 also markedly right-shifted thrombin-induced aggregation by 5-fold. By comparison, the small molecule RWJ-56110 which antagonizes PAR1 at the extracellular ligand-binding site gave a 2-fold right shift in the thrombin activation curve of human platelets.
Whole blood from healthy donors was collected into a 30 ml syringe containing sodium citrate (0.4% vol/vol final). Platelets were isolated from platelet rich plasma (PRP) using Sepharose 2B columns in modified PIPES buffer.

human whole blood = test: Activated clotting time (ACT) of blood from PCI patients; details: iv 0.75 mg/kg bolus then 1.75 mg/kg/hr, 30 min
Description: PZ-128 (χ) was spiked at various concentrations (0-150 μM) into fresh whole blood obtained from patients just prior to PCI. By comparison, blood was obtained at the 30 min time point from PCI patients (n=22) after a weight-adjusted dosage of bivalirudin (•) administered intravenously as a 0.75 mg/kg bolus followed by continuous infusion of 1.75 mg/kg/hr during the procedure. ACT assays were performed immediately using a Hemochron 801 with FTCA510-4 ACT cartridges containing silica, phospholipids, and diatomaceous earth (kaolin). The open circle represents the mean (±SD) ACT and mean bivalirudin concentration at the 30 min time point in the 22 PCI patients.
The effects of PZ-128 micelles were measured on activated clotting time (ACT) in human blood samples freshly obtained from adult patients undergoing PCI. At concentrations of PZ-128 up to 150 μM, there were no effects on ACT in the human PCI blood samples (FIG. 5).
Adult outpatients with angina referred for coronary angiography or PCI were enrolled in the Tufts Medical Center Adult Cardiac Catheterization Laboratory. Blood was collected prior to PCI or angiography and PZ-128 micelles were spiked into 1 ml samples of whole blood at a range of final concentrations (0-150 μmol/L). ACT was measured immediately in duplicate. […] Bivalirudin concentrations in plasma were measured by LC/MS/MS.

[2] = system: guinea pig carotid artery thrombosis; test: Guinea pig carotid artery FeCl3 injury arterial thrombosis model; format: in vivo; details: sub-therapeutic dose alone (PZ-128 0.05 mg/kg; clopidogrel 1 mg/kg PO)
Description: A carotid artery FeCl3 injury model was used in guinea pigs to assess the anti-thrombotic efficacy of PZ-128 micelles within 15 min of initiation of drug administration. FeCl3 denudes the artery and exposes type I collagen and other subendothelial matrix proteins to initiate platelet-dependent thrombosis. Guinea pigs received 10 min intravenous infusions of PZ-128 micelles, 5 min prior to carotid artery injury. […] Mean occlusion times increased by 4-fold to 40 min at doses above 0.05 mg/kg PZ-128.
Male Hartley guinea pigs (150˜220 g) were purchased from Charles River Laboratories. A 0.61 mm-diameter catheter was inserted into the left jugular vein of anesthetized animals for administration of infusions of 5% USP dextrose vehicle or PZ-128 micelles. A 0.5 V-Doppler probe (Transonic Systems, Ithaca, N.Y.) was placed around the right carotid artery to record blood flow. A range of doses of PZ-128 micelles from 0.05 to 1.6 mg/kg in 0.9 ml volumes were delivered at an injection rate of 0.09 ml/min by a Harvard syringe pump. Five minutes after the infusion ended, arterial thrombosis was induced by placing a 5×5 mm^2 piece of filter paper soaked in freshly made 20% FeCl3 solution on the right carotid artery 5 mm distal to the probe for 20 minutes. […] To examine possible synergistic effects of PZ-128 micelles and P2Y12-ADP receptor inhibition, 1 mg/kg clopidogrel was administered by oral gavage 4 hours prior to FeCl3 injury. In these synergy experiments, the maximum endpoint was set at 90 minutes for occlusion time.

[3] = cited from earlier work
PAR1 = details: read-out: EC50, activation of guinea pig platelets; PRP from vehicle-treated guinea pigs

For `NCC[C@H](NC(=O)[C@H](Cc1ccc(F)c(F)c1)NC(=O)Nc1ccc2c(CN3CCCC3)cn(Cc3c(Cl)cccc3Cl)c2c1)C(=O)NCc1ccccc1` [RWJ-56110, reference compound], the “Right shift of thrombin-induced aggregation curve” value [1] was 2 fold.

For `CC[C@H](C)[C@H](NC(=O)[C@H](CCC(=O)O)NC(=O)[C@H](CCC(=O)O)NC(=O)[C@H](Cc1ccccc1)NC(=O)[C@H](CC(=O)O)NC(=O)CNC(=O)[C@H](CC(N)=O)NC(=O)CNC(=O)CNC(=O)CNC(=O)CNC(=O)[C@@H]1CCCN1C(=O)[C@H](CCCNC(=N)N)NC(=O)[C@@H]1CCCN1C(=O)[C@H](N)Cc1ccccc1)C(=O)N1CCC[C@H]1C(=O)N[C@@H](CCC(=O)O)C(=O)N[C@@H](CCC(=O)O)C(=O)N[C@@H](Cc1ccc(O)cc1)C(=O)N[C@@H](CC(C)C)C(=O)O` [bivalirudin], the “Activated clotting time (ACT)” value (human whole blood) was “highly elevated”.

For `COC(=O)[C@H](c1ccccc1Cl)N1CCc2sccc2C1` [clopidogrel, reference compound], the “Protection against arterial occlusion when used alone” value [2] was “non-significant protection”.

In the case of `CCOC(=O)N[C@@H]1CC[C@@H]2[C@@H](C1)C[C@H]1C(=O)O[C@H](C)[C@H]1[C@H]2/C=C/c1ccc(-c2cccc(F)c2)cn1` [vorapaxar], the “Pharmacodynamic (PD) half-life” value ([3]; oral administration) is given as “up to 3 weeks” and the Plasma half-life ([3]; single loading dose) is given as 5 to 11 days.

Work on SFLLRN yielded an EC50 (PAR1) of 2500 nM.
